Where only a bound is given, the exact number is not on record here.

Holding throughout (assay type): cell-based
For assay [1], the target named is T1, BCL-XL (Homo sapiens, UniProt Q07817).
T1 construct: endogenous in cells; host or cells: MOLT-4
As to the kind of experiment: BCL-XL degradation assay, western blot in MOLT-4 cells, 16 h. The settings on record: western blot, MOLT-4 cells, 16 h; for Dmax: read-out: Bcl-xL WB in MOLT-4 degradation 16 h: Average Dmax %; for DC50: read-out: Bcl-xL WB in MOLT-4 degradation 16 h: Mean external-Abs DC50. In short, it runs like this: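 Infrared-imaged western blots quantified BCL-xL (normalised against beta-actin/GAPDH) after 16 hr, 37° C exposure of MOLT-4 cells to 0.02-10 μM compound; results given as DC50 and Dmax % bins.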
A general note: A western blot detects proteins with antibodies after separation by electrophoresis.

Another assay has as its system Caki-2 cells. As to the kind of experiment: CTG (CellTiter-Glo) cell viability assay, Caki-2. The settings on record: Homo sapiens, 72 h, 3 day incubation, read-out: CTG Chempartner - Caki-2 3 day: Average external-IC50. In short, it runs like this: (§1)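 10,000 cells/well; 9 doses, 1:3 from 10 μM top; 0.2% DMSO; 3 d, 37 °C, 5% CO2; CTG luminescence; IC50 via 3-parameter logistic fit. Letter bins differ: Caki-2 C/D cut at 10.0 μM, MOLT-4 at 3.0 μM.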
(In general: Cellular ATP, detected with luciferase, serves as a proxy for viable cell number.)

Another assay has as its system MOLT-4 cells. Kind of assay: CTG (CellTiter-Glo) cell viability assay, MOLT-4. Conditions: Homo sapiens, MOLT-4, 72 h, 3 day incubation, read-out: CTG Cell Viability Assay - MOLT-4 3 day: Average external-IC50. In short, it runs like this:
as §1

Assay [2] addresses T1, BCL-XL. As to the kind of experiment: Bcl-xL ELISA degradation in MOLT-4 cells, 6 h. The settings on record: for DC50: read-out: Bcl-xL ELISA in MOLT-4 degradation 6 h: Mean external-Abs DC50. The procedure:
The letter codes for BCL-XL DC50 include: A (<0.01 μM); B (0.01-0.1 μM); C (>[…]); D (>0.5-1.0 μM); and E (>1.0 μM). The letter codes for Dmax % include A (>75%); B (50 to 75%); C (<50%).
(ELISA stands for enzyme-linked immunosorbent assay.)

T1 sequence (Q07817 whole entry): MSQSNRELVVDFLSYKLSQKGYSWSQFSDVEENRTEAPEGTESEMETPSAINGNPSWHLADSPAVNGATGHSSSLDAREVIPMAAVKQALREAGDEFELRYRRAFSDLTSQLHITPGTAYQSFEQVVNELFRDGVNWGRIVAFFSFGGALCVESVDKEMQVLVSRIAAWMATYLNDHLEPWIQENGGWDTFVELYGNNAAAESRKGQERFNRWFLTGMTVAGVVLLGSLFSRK

Turning to `Cc1ncsc1-c1ccc(CNC(=O)[C@@H]2C[C@@H](O)CN2C(=O)[C@@H](NC(=O)CCOCCOCCOCCOCCOCCOCC#Cc2ccc(OCCCc3sc(N4CCc5cccc(C(=O)Nc6nc7ccccc7s6)c5C4)nc3C(=O)O)cc2)C(C)(C)C)cc1` [I-383], the greatest degradation seen (Dmax) at BCL-XL [1] and on BCL-XL [2] was more than 75% throughout. The 50% degradation concentration (DC50) on BCL-XL [1] and at BCL-XL [2] was 10 to 100 nM in each case. For the same molecule, the IC50 (commonly the concentration needed to halve the response being measured) in the assay with Caki-2 cells lay in the range of 1000 to 10000 nM; in the assay on MOLT-4 cells it was 100 to 1000 nM.
For `Cc1ncsc1-c1ccc(CNC(=O)[C@@H]2C[C@@H](O)CN2C(=O)[C@@H](NC(=O)C2(F)CC2)C(C)(C)C)c(OCCCCCS(=O)(=O)NC(=O)c2nc(N3CCc4cccc(C(=O)Nc5nc6cccnc6s5)c4C3)ccc2-c2cnn(CC3CCCCC3)c2C)c1` [I-187], the greatest degradation seen (Dmax) (as a rule, the largest share of the target that was removed) at BCL-XL [1] was more than 75%; on BCL-XL [2], 50 to 75%. Further, the DC50 at BCL-XL [1] and on BCL-XL [2] was 10 to 100 nM throughout. For the same molecule, the 50% inhibitory concentration (IC50) was more than 10000 nM in the assay on Caki-2 cells and 100 to 1000 nM with MOLT-4 cells.
As for `C#Cc1ccc(CNC(=O)[C@@H]2C[C@@H](O)CN2C(=O)[C@@H](NC(=O)CCCS(=O)(=O)NC(=O)c2nc(N(C)c3cc(C)c(Nc4nc5ccccc5s4)nn3)ccc2-c2cnn(CC3CCCCC3)c2C)C(C)(C)C)cc1` [I-340], the Dmax is more than 75% on BCL-XL [1] and 50 to 75% at BCL-XL [2]. The DC50 (commonly the concentration at which degradation of the target reaches its halfway point) on BCL-XL [1] is 100 to 500 nM; on BCL-XL [2], 10 to 100 nM. Besides, the 50% inhibitory concentration (IC50) with Caki-2 cells was more than 10000 nM; with MOLT-4 cells, 100 to 1000 nM.
As for `Cc1ncsc1-c1ccc([C@H](C)NC(=O)[C@@H]2C[C@@H](O)CN2C(=O)[C@@H](NC(=O)C2CCN(c3ccc(S(=O)(=O)NC(=O)c4nc(N5CCc6cccc(C(=O)Nc7nc8ccccc8s7)c6C5)ccc4-c4cnn(CC5CCCCC5)c4C)cc3)CC2)C(C)(C)C)cc1` [I-195], the Dmax at BCL-XL [1] and at BCL-XL [2] was more than 75% each time. Also, the DC50 is less than 10 nM at BCL-XL [1] and 10 to 100 nM on BCL-XL [2]. Further, the IC50 in the assay with Caki-2 cells is 1000 to 10000 nM; in the assay with MOLT-4 cells, less than 100 nM.
Regarding `Cc1ncsc1-c1ccc(CNC(=O)[C@@H]2C[C@@H](O)CN2C(=O)[C@@H](NC(=O)CCCS(=O)(=O)NC(=O)c2nc(N3CCc4cccc(C(=O)Nc5nc6cccnc6s5)c4C3)ccc2-c2cnn(CC3CCCCC3)c2C)C(C)(C)C)cc1` [I-351], the maximal degradation (Dmax) on BCL-XL [1] was 50 to 75%; on BCL-XL [2] it was more than 75%. Also, the DC50 at BCL-XL [1] and at BCL-XL [2] was 100 to 500 nM each time. The IC50 with Caki-2 cells was more than 10000 nM; with MOLT-4 cells, more than 3000 nM.
In the case of `Cc1ncsc1-c1ccc(CNC(=O)[C@@H]2C[C@@H](O)CN2C(=O)[C@@H](NC(=O)C2(F)CC2)C(C)(C)C)c(OCCCCCS(=O)(=O)NC(=O)c2nc(N3CCc4cccc(C(=O)Nc5nc6ccccc6s5)c4C3)ccc2-c2cnn(CC3CCCCC3)c2C)c1` [I-177], the Dmax at BCL-XL [1] and at BCL-XL [2] was more than 75% each time. Besides, the half-maximal degradation concentration (DC50) was less than 10 nM on BCL-XL [1] and 10 to 100 nM on BCL-XL [2]. Further, the concentration for half-maximal inhibition (IC50) in the assay with Caki-2 cells was 1000 to 10000 nM; in the assay on MOLT-4 cells it was less than 100 nM.
For the molecule `Cc1ncsc1-c1ccc([C@H](C)NC(=O)[C@@H]2C[C@@H](O)CN2C(=O)[C@@H](NC(=O)CCCCCCNC(=O)c2nc(N3CCc4cccc(C(=O)Nc5nc6ccccc6s5)c4C3)ccc2-c2cnn(CC3CCCCC3)c2C)C(C)(C)C)cc1` [I-96], the values for the greatest degradation seen (Dmax) at BCL-XL [1] and on BCL-XL [2] were more than 75% and 50 to 75%, respectively. For the same molecule, the DC50 at BCL-XL [1] and on BCL-XL [2] was 10 to 100 nM throughout. Also, the IC50 is more than 10000 nM with Caki-2 cells and 100 to 1000 nM in the assay with MOLT-4 cells.
For the molecule `C#Cc1ccc([C@H](C)NC(=O)[C@@H]2C[C@@H](O)CN2C(=O)[C@@H](NC(=O)CCCCCC(=O)N2CCN(CC[C@H](CSc3ccccc3)Nc3ccc(S(=O)(=O)NC(=O)c4ccc(N5CCN(CC6=C(c7ccc(Cl)cc7)CCC(C)(C)C6)CC5)cc4)cc3S(=O)(=O)C(F)(F)F)CC2)C(C)(C)C)cc1` [I-388], the results for the maximal degradation (Dmax) on BCL-XL [1] and at BCL-XL [2] were more than 75% and 50 to 75%, respectively. Moreover, the DC50 on BCL-XL [1] was 10 to 100 nM; on BCL-XL [2], 100 to 500 nM. Besides, the IC50 in the assay with Caki-2 cells was more than 10000 nM; in the assay on MOLT-4 cells it was less than 100 nM.
As to `Cc1ncsc1-c1ccc([C@H](C)NC(=O)[C@@H]2C[C@@H](O)CN2C(=O)[C@@H](c2cc(OC3CCN(CCCS(=O)(=O)NC(=O)c4nc(N5CCc6cccc(C(=O)Nc7nc8ccccc8s7)c6C5)ccc4-c4cnn(CC5CCCCC5)c4C)CC3)no2)C(C)C)cc1` [I-178], the Dmax at BCL-XL [1] is more than 75%; on BCL-XL [2], 50 to 75%. Also, the 50% degradation concentration (DC50) on BCL-XL [1] and on BCL-XL [2] was 10 to 100 nM throughout. Further, the IC50 in the assay on Caki-2 cells was more than 10000 nM; in the assay with MOLT-4 cells it was 100 to 1000 nM.
With `Cc1ncsc1-c1ccc([C@H](C)NC(=O)[C@@H]2C[C@@H](O)CN2C(=O)[C@@H](NC(=O)CCCCCCC(=O)N2CCN(CC3(C)CCC(c4ccc(Cl)cc4)=C(CN4CCN(c5ccc(C(=O)NS(=O)(=O)c6ccc(N[C@H](CCN7CCOCC7)CSc7ccccc7)c(S(=O)(=O)C(F)(F)F)c6)cc5)CC4)C3)CC2)C(C)(C)C)cc1` (stereo partly drawn) [I-395], the maximal degradation (Dmax) at BCL-XL [1] was more than 75%; on BCL-XL [2], less than 50%. In addition, the DC50 is less than 10 nM on BCL-XL [1] and 10 to 100 nM on BCL-XL [2]. The half-inhibitory concentration (IC50) with Caki-2 cells is 100 to 1000 nM; in the assay with MOLT-4 cells it was less than 100 nM.
In the case of `Cc1ncsc1-c1ccc([C@H](C)NC(=O)[C@@H]2C[C@@H](O)CN2C(=O)[C@@H](NC(=O)CCCCCCC(=O)N2CCN(C[C@]3(C)CCC(c4ccc(Cl)cc4)=C(CN4CCN(c5ccc(C(=O)NS(=O)(=O)c6ccc(N[C@H](CCN7CCOCC7)CSc7ccccc7)c(S(=O)(=O)C(F)(F)F)c6)cc5)CC4)C3)CC2)C(C)(C)C)cc1` [I-397], the figures for the Dmax at BCL-XL [1] and at BCL-XL [2] were more than 75% and 50 to 75%, respectively. For the same molecule, the DC50 at BCL-XL [1] is less than 10 nM; at BCL-XL [2], 10 to 100 nM. For the same molecule, the half-inhibitory concentration (IC50) in the assay on Caki-2 cells is 100 to 1000 nM; in the assay with MOLT-4 cells it was less than 100 nM.
With `C#Cc1ccc([C@H](CO)NC(=O)[C@@H]2C[C@@H](O)CN2C(=O)[C@@H](NC(=O)CCc2ccc(S(=O)(=O)NC(=O)c3nc(N4CCc5cccc(C(=O)Nc6nc7cccnc7s6)c5C4)ccc3-c3cnn(CC4CCCCC4)c3C)cc2)C(C)(C)C)cc1` [I-205], the greatest degradation seen (Dmax) at BCL-XL [1] and on BCL-XL [2] was more than 75% throughout. For the same molecule, the figures for the DC50 on BCL-XL [1] and at BCL-XL [2] were less than 10 nM and 10 to 100 nM, respectively. Further, the IC50 with Caki-2 cells was more than 10000 nM; in the assay on MOLT-4 cells it was 100 to 1000 nM.
In the case of `Cc1ncsc1-c1ccc(CNC(=O)[C@@H]2C[C@@H](O)CN2C(=O)[C@@H](NC(=O)C2(F)CC2)C(C)(C)C)c(OCCN2CCN(CC[C@H](CSc3ccccc3)Nc3ccc(S(=O)(=O)NC(=O)c4ccc(N5CCN(CC6=C(c7ccc(Cl)cc7)CCC(C)(C)C6)CC5)cc4)cc3S(=O)(=O)C(F)(F)F)CC2)c1` [I-394], the Dmax at BCL-XL [1] is more than 75%; at BCL-XL [2] it was 50 to 75%. Moreover, the DC50 on BCL-XL [1] is less than 10 nM; at BCL-XL [2], 10 to 100 nM. Further, the IC50 in the assay with Caki-2 cells was more than 10000 nM; in the assay with MOLT-4 cells, less than 100 nM.

These data come from US20250197387A1, “BCL-XL DEGRADERS AND USES THEREOF” (Kymera Therapeutics, Inc., priority 2021, published 2025).
